Results taken from patent publication US20230203485A1, “METHODS FOR MODULATING MHC-I EXPRESSION AND IMMUNOTHERAPY USES THEREOF” (Dana-Farber Cancer Institute, Inc., priority 2020, published 2023).

Legend:
Format in all cases: cell-based, human
class I bound peptides = assay: HLA-I immunoprecipitation and LC-MS/MS immunopeptidome of cell lines +/- IFN-γ
Protocol: Up to 40 million or 0.2 g of MCC cells were immunoprecipitated. Briefly, MCC cells were harvested and lysed in ice-cold lysis buffer containing […] (pH 8.0), 1 mM EDTA (pH 8.0), 0.1M sodium chloride, Triton X-100, 0.06M octyl β-d-glucopyranoside, 100 U/mL DNAse I, 1 mM phenylmethanesulfonyl fluoride (all from Sigma Aldrich), and protease inhibitor cocktail (Roche Diagnostics). Cell lysate was centrifuged at 12,700 rpm at 4° C. for 22 min. Lysate supernatant was coupled with Gammabind Plus sepharose beads (GE Healthcare) and incubated with 10 μg of HLA-I antibody (Clone W6/32, Santa Cruz Biotechnologies) at 4° C. under rotary agitation for 3 h. After incubation, the lysate-bead-antibody mixture was briefly centrifuged and the supernatant was discarded. Beads were washed with lysis buffer, consisting of wash buffer containing 40 mM Tris (pH 8.0), 1 mM EDTA (pH 8.0), 0.1M sodium chloride, 0.06M octyl β-d-glucopyranoside, and 20 mM Tris buffer, without protease inhibitors. […] Peptides of up to three immunoprecipitations were combined, acid eluted, and analyzed using LC/MS-MS. […] Peptides were eluted in a 6-30% gradient (EasyLC 1000 or 1200, Thermo Fisher Scientific) and analyzed on a QExactive Plus, Fusion Lumos, or Orbitrap Exploris 480 (Thermo Fisher Scientific). […] Fractions were analyzed on a Fusion Lumos or Orbitrap Exploris 480 equipped with a FAIMSpro interface. […]

class I gene transcripts = assay: RNA-seq of MCC lines before and after IFN-γ stimulation
Protocol: For samples from the MCC tumors and newly generated cell lines, RNA was first assessed for quality using the Agilent Bioanalyzer (DV200 metric). 100 ng of RNA were used as the input for first strand cDNA synthesis using Superscript III reverse transcriptase and Illumina's TruSeq RNA Access Sample Prep Kit. Synthesis of the second strand of cDNA was followed by indexed adapter ligation with UMI (unique molecular index) adaptors. Subsequent PCR amplification enriched for adapted fragments. Amplified libraries were quantified, normalized, pooled, and hybridized with exome targeting oligos. Following hybridization, bead clean-up, elution, and PCR was performed to prepare library pools for sequencing on Illumina flowcell lanes. Transcriptomes were sequenced to a coverage of at least 50 million reads in pairs.
Gene counts were obtained from BAM files using featureCounts version 2.0.0. Very lowly expressed genes with average count across samples less than 1 were excluded from analysis. […]
Differential expression analysis was carried out between IFN-γ plus and minus samples (adjusting for viral status as a covariate) using the negative binomial GLM Wald test of DESeq2, where significance was assessed using the p-values adjusted for multiple comparisons under default settings. […]

[1] = system: HLA-DR expression on MCC cell lines; assay: Flow cytometry assessment of HLA-DR expression in MCC lines at baseline and after IFN-γ; conditions: MCC-301 line
Protocol: FIG. 1N is a graph showing flow cytometry assessment of HLA-DR expression in all 11 MCC lines, both at baseline (light pink) and after IFN-γ treatment (red).
Cells were dissociated with Versene and incubated with 5 μL Human TruStain FcX (Fc receptor blocking solution; Biolegend, Dedham, Mass.) per million cells in […] at room temperature for 10 min. Fluorochrome-conjugated antibodies or respective isotype controls were immediately added and incubated for another 30 min at 4° C. Cells were then washed once with PBS and resuspended in PBS containing 4% paraformaldehyde and analyzed on LSR Fortessa cytometers. Additional steps were described for individual experiments as below. For upregulation of HLA Class I experiment, 5×10^5 MCC cells were treated with increasing doses of IFNα2b, IFN3, IFNγ for 24 hours, or MEK inhibitors and DMSO for 72 hours before staining with W6/32 and Live/Dead as above.

Substance	median fold increase in the abundance of class I bound peptides (class I bound peptides; across 7 cell lines, following IFN-γ stimulation) [fold]	frequencies of peptides mapping to each HLA allele (class I bound peptides; cell lines with vs without IFN-γ treatment)	class I gene transcripts (class I gene transcripts; MCC lines, IFN-γ treatment)	HLA-A, -B, and -C mRNA upregulation (class I gene transcripts; MCC-336 (non-IFN-γ-responsive))	HLA-DR expression [1]
IFN-γ: interferon gamma used to stimulate MCC cell lines	12	increase in HLA-B-presented peptides	markedly upregulated	lack of IFN-induced HLA-A, -B, and -C mRNA upregulation	–
IFN-y: type II interferon, recombinant human, used to treat MCC cells	–	–	–	–	inducible HLA-DR expression
